Experimental findings from patent US9174965B2, “Pyrimidinylpiperidinyloxypyridone analogues as GPR119 modulators” (BRISTOL-MYERS SQUIBB COMPANY, priority 2012, dated 2015) are described below.

Values after ≈ are worked out from the molar mass of the structure shown.

Series [1] in a line: Compound bioavailability assay in rats. It is filed as in vivo. To be noted: male, Sprague-Dawley, plasma, rat, oral. On the procedure:
Compound Bioavailability Assays
Male Sprague-Dawley rats (270-350 g) were used in the pharmokinetic studies. Two (2) groups of animals (N=3 per group) were fasted overnight and one group received test compound as an IV infusion dose (1 mg/kg over 10 minutes) via a jugular vein in PEG-400/propylene glycol/ethanol (50:40:10) or Cremophor-EL/PEG400/water (10:40:50, v/v/v). The other group received test compound by oral gavage (2 or 5 mg/kg) as either nano-suspension in Pluronic F-108/polyvinylpyrrolidinone/water (1:2.5:96.5, v/v/v) or in Methocel A4M/Tween 80/water (0.5:0.1:99.4, v/v/v) as suspension (partical size: d50=0.960 μm; d90=4.4 μm) for oral dosing. […]
Pharmacokinetic parameters were obtained by non-compartmental analysis of plasma concentration vs. time data (KINETICA™ software, Version 5.0, Thermo Fisher Scientific Corporation, Philadelphia, Pa.). The peak concentration (Cmax) and time for Cmax (Tmax) were recorded directly from experimental observations. The area under the curve from time zero to the last sampling time [AUC(0-T)] and the area under the curve from time zero to infinity [AUC(INF)] were calculated using a combination of linear and log trapezoidal summations. […] Estimations of AUC and T-HALF were made using a minimum of 3 timepoints with quantifiable concentrations. […]

Series [2] can be described thus: in vitro. To be noted: human, microsomes, pH 7.4.
Description: Metabolic Stability in Liver Microsomes Test
The test compound was received as a 3.5 mM stock solution in 100 percent dimethyl sulfoxide (“DMSO”, Sigma Aldritch). The compound solution was diluted to create a 50 μM acetonitrile (“ACN”, Sigma Aldritch) solution containing 1.4% DMSO, which is then used as a 100-fold stock for incubation with microsomes. The test compound, β-nicotinamide adenine dinucleotide phosphate (“NADPH”, AppliChem Inc.) and liver microsome solutions are combined for incubation in three steps:
1) 450 μl of liver microsome suspension, protein concentration of 1.1 mg/ml in 100 mM sodium (+)/phosphate (“NaPi”, pH 7.4, Sigma Aldritch) buffer, 5 mM magnesium chloride (“MgCl2, Sigma Aldritch) buffer, is pre-warmed at 37° C.;
2) 5 μl of 50 μM test compound (98.6% ACN, 1.4% DMSO) is added to the same tube and pre-incubated at 37° C. for 5 minutes; and
3) The reaction is initiated by the addition of 50 μl of pre-warmed 10 mM NADPH solution in 100 mM NaPi, pH 7.4.
Reaction components are mixed well and then 65 μl are immediately transferred into 130 μl quench/stop solution (zero-time point, T0). The reactions are incubated at 37° C. for 5, 10, 15, 30 and 45 minutes and at each time-point a 65 μl aliquot is transferred into 130 μl of quench solution. ACN containing Internal Standard (100 ng/ml), is used as the quench solution to terminate metabolic reactions. The quenched mixtures are centrifuged at 1500 rpm (˜500×g) in an Allegra X-12 centrifuge, SX4750 rotor (Beckman Coulter Inc., Fullerton, Calif.) for fifteen minutes to pellet denatured microsomes. A volume of 90 μl of supernatant extract, containing the mixture of parent compound and its metabolites, is then transferred to a separate 96-well plate for LC/MS-MS analysis to determine the percent of parent compound that is remaining in the mixture. Peak integration is performed on all samples using the Hepatic Clearance Calculator of QuickCalc by Gubbs, Inc. The percent remaining calculation is performed by comparing the LC-MS/MS peak areas from the samples at each time point to those from the T0 samples for each compound. T1/2 values are calculated from linear regression of the LN (% Remaining) over time, and the slope of that regression (Kel) is used to calculate T1/2, using the following equation: T1/2=−0.693/Kel.
Series [3] is described as follows: Aqueous solubility assay. It is filed as physicochemical. To be noted: aqueous buffer, thermodynamic from solid; pH 6.5 phosphate buffer, room temperature, 18-24 h. On the procedure:
Approximately 0.75 mg of accurately weighed test compound was added to 1 mL of a pH 6.5 phosphate buffer (50 mM Potassium Phosphate Buffer) to make solutions with a nominal targeted concentration of 1 mM. The vial was then rotated on an orbital shaker at room temperature for 18-24 h. After equilibration time had been met, the test solution was centrifuge filtered through a 0.45 um membrane (Millipore Ultrafree Centrifugal Filters, Durapore PVDF 0.45 um). The filtrate was then analyzed by an Agilent HP1100 HPLC/UV at multiple wavelengths using diode array detection (e.g. 210, 230, 254 and 280 nm) against a previously generated calibration curve to determine compound concentration.
Find below in Table 9 data for compared compounds (See WO 2011/127106 A1).

In series [4] the target is L-type calcium channel Cav1.2 (Homo sapiens (Human), UniProt Q13936). Description: Patch clamp electrophysiology assay, L-type calcium channel. Type of series: cell-based. To be noted: pH 7.35, HEK293, read-out: Ca % Inhibition. On the procedure: Compound Electrophysiology Assays
Chain of L-type calcium channel Cav1.2 (Q13936 whole entry): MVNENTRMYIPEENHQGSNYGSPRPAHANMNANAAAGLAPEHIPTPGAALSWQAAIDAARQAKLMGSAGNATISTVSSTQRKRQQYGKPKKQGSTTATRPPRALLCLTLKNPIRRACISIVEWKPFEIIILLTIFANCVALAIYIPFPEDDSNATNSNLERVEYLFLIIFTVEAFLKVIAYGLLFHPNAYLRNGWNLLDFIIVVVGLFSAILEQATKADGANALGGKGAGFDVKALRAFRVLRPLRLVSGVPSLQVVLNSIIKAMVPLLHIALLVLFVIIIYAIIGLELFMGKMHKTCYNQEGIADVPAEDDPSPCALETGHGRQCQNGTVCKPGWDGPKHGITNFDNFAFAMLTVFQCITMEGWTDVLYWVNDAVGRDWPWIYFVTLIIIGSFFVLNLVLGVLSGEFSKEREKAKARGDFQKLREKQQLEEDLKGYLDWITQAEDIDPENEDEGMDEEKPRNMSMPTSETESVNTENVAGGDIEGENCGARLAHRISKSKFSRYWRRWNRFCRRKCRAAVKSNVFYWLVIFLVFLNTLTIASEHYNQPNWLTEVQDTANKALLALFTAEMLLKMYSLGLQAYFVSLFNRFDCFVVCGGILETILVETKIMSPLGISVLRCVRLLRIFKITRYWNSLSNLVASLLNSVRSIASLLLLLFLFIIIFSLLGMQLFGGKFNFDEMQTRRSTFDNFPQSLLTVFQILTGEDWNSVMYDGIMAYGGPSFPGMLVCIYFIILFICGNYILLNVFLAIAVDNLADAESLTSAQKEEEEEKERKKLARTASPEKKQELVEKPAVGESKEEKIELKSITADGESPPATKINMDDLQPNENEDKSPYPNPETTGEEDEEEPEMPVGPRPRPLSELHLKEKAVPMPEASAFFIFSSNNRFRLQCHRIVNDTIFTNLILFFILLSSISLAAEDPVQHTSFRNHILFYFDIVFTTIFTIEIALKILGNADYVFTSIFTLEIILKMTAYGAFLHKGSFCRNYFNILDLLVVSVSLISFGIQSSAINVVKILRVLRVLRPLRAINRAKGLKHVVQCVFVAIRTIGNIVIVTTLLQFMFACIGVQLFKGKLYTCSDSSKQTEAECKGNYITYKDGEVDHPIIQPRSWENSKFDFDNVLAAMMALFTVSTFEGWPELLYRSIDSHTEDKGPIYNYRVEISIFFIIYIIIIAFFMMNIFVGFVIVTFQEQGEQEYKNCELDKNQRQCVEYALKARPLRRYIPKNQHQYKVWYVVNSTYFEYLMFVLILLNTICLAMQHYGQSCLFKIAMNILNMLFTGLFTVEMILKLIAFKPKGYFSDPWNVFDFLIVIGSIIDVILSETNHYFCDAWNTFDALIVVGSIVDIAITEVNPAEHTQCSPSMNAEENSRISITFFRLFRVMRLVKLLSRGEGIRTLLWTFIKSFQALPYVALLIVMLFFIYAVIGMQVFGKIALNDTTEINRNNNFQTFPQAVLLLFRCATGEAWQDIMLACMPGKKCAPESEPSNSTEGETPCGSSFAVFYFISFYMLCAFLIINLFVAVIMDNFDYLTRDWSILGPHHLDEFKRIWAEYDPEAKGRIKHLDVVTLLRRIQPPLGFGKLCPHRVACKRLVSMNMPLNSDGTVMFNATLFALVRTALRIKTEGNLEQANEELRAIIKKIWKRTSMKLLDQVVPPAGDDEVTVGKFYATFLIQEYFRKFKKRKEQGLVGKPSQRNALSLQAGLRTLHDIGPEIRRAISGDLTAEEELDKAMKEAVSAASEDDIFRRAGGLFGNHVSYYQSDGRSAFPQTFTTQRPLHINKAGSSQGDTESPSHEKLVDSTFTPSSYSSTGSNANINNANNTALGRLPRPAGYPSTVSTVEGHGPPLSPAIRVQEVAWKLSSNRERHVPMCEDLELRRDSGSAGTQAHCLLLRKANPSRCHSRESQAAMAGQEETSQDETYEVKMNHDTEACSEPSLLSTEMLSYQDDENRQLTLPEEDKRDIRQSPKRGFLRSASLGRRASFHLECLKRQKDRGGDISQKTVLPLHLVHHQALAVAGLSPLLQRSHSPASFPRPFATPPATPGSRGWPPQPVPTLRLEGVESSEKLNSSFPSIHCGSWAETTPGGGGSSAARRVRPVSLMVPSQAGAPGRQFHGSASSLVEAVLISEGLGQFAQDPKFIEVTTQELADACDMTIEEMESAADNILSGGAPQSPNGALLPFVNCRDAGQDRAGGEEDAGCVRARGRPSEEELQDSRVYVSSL
Chain of L-type calcium channel Cav1.2 (Q08289 whole entry partner): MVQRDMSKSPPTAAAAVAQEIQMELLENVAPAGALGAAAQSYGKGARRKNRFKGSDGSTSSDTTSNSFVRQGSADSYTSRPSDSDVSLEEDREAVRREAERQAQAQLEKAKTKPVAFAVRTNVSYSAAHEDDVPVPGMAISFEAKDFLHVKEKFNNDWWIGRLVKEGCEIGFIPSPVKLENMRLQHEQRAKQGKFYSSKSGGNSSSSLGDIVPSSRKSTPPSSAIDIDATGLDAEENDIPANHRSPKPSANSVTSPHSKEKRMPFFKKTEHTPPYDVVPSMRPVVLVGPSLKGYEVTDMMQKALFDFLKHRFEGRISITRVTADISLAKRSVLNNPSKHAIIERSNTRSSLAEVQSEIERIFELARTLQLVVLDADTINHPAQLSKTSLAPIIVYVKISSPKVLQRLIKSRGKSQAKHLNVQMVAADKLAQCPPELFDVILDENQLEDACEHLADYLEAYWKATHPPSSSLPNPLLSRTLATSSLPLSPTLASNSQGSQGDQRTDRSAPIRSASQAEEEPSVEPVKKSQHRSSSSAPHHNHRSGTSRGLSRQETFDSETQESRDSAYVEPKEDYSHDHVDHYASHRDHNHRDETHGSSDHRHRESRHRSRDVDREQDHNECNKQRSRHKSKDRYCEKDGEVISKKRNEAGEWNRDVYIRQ
Chain of L-type calcium channel Cav1.2 (P54289 25-1103 partner): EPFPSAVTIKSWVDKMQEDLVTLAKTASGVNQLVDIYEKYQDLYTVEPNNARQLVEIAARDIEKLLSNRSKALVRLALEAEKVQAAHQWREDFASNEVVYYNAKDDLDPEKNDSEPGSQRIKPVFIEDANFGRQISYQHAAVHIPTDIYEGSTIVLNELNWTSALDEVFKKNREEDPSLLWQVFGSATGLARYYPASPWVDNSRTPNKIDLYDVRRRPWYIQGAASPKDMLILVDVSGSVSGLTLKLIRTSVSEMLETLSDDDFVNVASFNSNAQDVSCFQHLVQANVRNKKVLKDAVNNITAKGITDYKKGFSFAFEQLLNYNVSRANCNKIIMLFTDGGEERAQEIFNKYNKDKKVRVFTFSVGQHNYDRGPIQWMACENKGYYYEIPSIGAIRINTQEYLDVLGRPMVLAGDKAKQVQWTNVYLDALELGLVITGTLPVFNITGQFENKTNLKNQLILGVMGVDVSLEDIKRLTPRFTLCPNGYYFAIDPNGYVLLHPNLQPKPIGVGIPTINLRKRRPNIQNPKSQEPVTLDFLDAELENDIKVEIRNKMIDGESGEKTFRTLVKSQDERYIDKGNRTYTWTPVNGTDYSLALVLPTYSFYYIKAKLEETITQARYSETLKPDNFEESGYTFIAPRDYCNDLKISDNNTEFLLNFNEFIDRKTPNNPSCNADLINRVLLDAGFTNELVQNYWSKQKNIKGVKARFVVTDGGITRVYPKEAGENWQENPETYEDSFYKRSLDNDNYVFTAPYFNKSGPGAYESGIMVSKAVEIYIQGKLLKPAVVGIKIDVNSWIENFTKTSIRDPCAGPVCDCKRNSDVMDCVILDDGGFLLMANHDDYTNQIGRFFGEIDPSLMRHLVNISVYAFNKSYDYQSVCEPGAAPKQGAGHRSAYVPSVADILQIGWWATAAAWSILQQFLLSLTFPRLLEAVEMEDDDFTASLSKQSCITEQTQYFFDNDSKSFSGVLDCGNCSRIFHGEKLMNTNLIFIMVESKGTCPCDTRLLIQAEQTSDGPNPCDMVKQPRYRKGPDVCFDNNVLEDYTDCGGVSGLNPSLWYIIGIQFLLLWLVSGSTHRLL
Recombinant ion channels (hERG, sodium [SCN5A], and L-type calcium [Cav1.2]) stably expressed in human embryonic kidney cells (HEK293) are used as test systems, and each system is tested using 2-3 replicates in the conventional patch clamp assay.
Ion channel membrane current recordings are made with a Multiclamp 700 series integrating patch-clamp amplifier (Axon Instruments, Foster City, Calif.) using the whole-cell variant of the patch-clamp technique.
Cells expressing hERG, sodium [SCN5A], or L-type calcium [Cav1.2] channels are placed in a plexiglass bath chamber, mounted on the stage of an inverted microscope, and perfused continuously with bath solution. […]
L-type calcium currents are elicited by 200 ms step depolarizations applied from a holding potential of −50 mV to a test potential of +30 mV. The voltage steps are applied in 5 second intervals (0.2 Hz) and the peak inward current is recorded. […] The peak inward current is monitored until a new steady-state in the presence of test article is achieved.
Compounds are tested in 3 cells at each concentration in each ion channel assay. […] All currents were recorded at room temperature ˜25° C. IC50 values are calculated using the sigmoidal concentration-response equation Y=A+((B−A)/(1+((C/X)^D))) in XLfit where A and B are the minimum and maximum % inhibition, C is the IC50 and D is the slope factor. […]

As a reminder, the half-life is how long it takes for the measured level to halve. High values mean slow decline, low ones rapid decline. The term solubility denotes the dissolved amount per volume that the medium holds. High values mean much dissolved substance, low ones little dissolved substance. A word on the inhibition: it is the change of the read-out against control, counted positive when it falls. As to `Cc1nc(-n2cc(Cl)c(OC3CCN(c4ncc(Cl)cn4)CC3)cc2=O)ccc1N1CC[C@H](O)C1=O` [Example 3, (S)-5-chloro-4-((1-(5-chloropyrimidin-2-yl)piperidin-4-yl)oxy)-5′-(3-hydroxy-2-oxopyrrolidin-1-yl)-6′-methyl-2H-[1,2′-bipyridin]-2-one], the bioavailability in series [1] (5 mg/kg as a microsuspension) was 120%. In series [2], this molecule gave a half-life at 0.5 µM of 1.3 h. In series [3], this molecule gave a solubility of 1 µg/mL (≈ 1.88 µM). Besides, the inhibition at 10 µM in series [4] amounted to 9%.
For the molecule `Cc1nc(-n2cc(Cl)c(OC3CCN(c4ncc(Cl)cn4)CC3)cc2=O)ccc1N1CC[C@@H](O)C1=O` [Example 4, (R)-5-chloro-4-((1-(5-chloropyrimidin-2-yl)piperidin-4-yl)oxy)-5′-(3-hydroxy-2-oxopyrrolidin-1-yl)-6′-methyl-2H-[1,2′-bipyridin]-2-one], in series [1] (2 mg/kg as a microsuspension), the bioavailability worked out at 122%. Moreover, in series [2], the half-life at 0.5 µM came out at 1.62 h. Besides, in series [3], the solubility came out at 2 µg/mL (≈ 3.76 µM). In series [4], the inhibition at 10 µM was 7%.
